Source: patent US20250388551A1, “COMPOUNDS INDUCING PRODUCTION OF PROTEINS BY IMMUNE CELLS” (UNIVERSITE PARIS CITE, priority 2022, published 2025)

Tests used:
human B cells = assay: IL-10 induction in human B cells cultivated with anti-IgM plus CpG; assay type: cell-based; conditions: B-cell, 48 h, 2 days, IL-10 in cell culture supernatants, read-out: IL-10 mean induction fold in human B cells treated with compound compared to DMSO control
Experimental: Human B cells isolated magnetically through negative selection (B Cell Isolation Kit II, human, Miltenyi ref: 130-091-151) were cultivated for 2 consecutive days in the presence of anti-IgM plus CpG in the presence of the indicated molecule (see table 1) at 0.25 μM final concentration, or DMSO as control. IL-10 was measured in cell culture supernatants, and the IL-10 induction fold was calculated for each molecule compared to the DMSO control.
Human B cells isolated magnetically through negative selection (B Cell Isolation Kit II, human, Miltenyi ref: 130-091-151) were cultivated for 2 consecutive days in the presence of anti-IgM plus CpG in the presence of DMSO (as control) or in the presence of the tested molecule at 0.25 μM final concentration. IL-10 was measured in cell culture supernatants. NS: non stimulated B cell culture condition.

[1] = tested on: resting mouse B cells from spleen of IL-10.eGFP mice; assay: High throughput flow cytometry-based phenotypic screen for IL-10 inducers; assay type: cell-based; conditions: 10 μM, LPS, 72 hours
Experimental: Resting mouse B cells were isolated from spleen of IL-10.eGFP mice by magnetic depletion of CD43+ cells, and stimulated for 72 hours in 384-well plates in the presence of chemical compounds at 10 μM final. The chemical library originated from the Leibniz-Forschungsinstitut für Molekulare Pharmakologie (FMP) (Berlin, Germany). The frequency of IL-10-expressing B cells was then measured in each well by flow cytometry.

resting mouse B cells [2] = assay: IL-10 expression in TLR-, CD40- and BCR-stimulated B cells by flow cytometry; assay type: cell-based; conditions: 0.25 μM, stimulation through TLR4, TLR7/8, TLR9, CD40, IgM, 72 hours
Experimental: Resting mouse B cells were isolated from spleen by magnetic depletion of CD43^+ cells and stimulated through TLR4, TLR7/8, TLR9, CD40, and IgM as indicated for 3 consecutive days. Cell culture medium was supplemented with DMSO-vehicle control, C3 or N6 at 0.25 μM. B cells from C57BL/6 mice were used to determine autofluorescence in eGFP channel and IL-10.eGFP-IL-6.tdTomato mice were used to monitor IL-10 expression by flow cytometry at 72 hours. The percentage of viable/singlets/CD19^+/IL-10^+ cells is shown. Data are presented as mean±SD. n≥3 independent experiments.

resting mouse B cells [3] = assay: Il10 mRNA expression in B cells (quantitative RT-PCR); assay type: cell-based; conditions: 0.25 μM
Experimental: Resting mouse B cells were isolated from spleen by magnetic depletion of CD43^+ cells. B cells were incubated with DMSO-vehicle control or N6 (0.25 μM), as such, or in combination with CpG. mRNA was extracted at different time-points and il10/actin ratio was determined.
Resting mouse B cells were isolated from spleen by magnetic depletion of CD43^+ cells. B cells were incubated with DMSO vehicle control, or C3 or N6 at 0.25 μM for the indicated time, and Il10 mRNA induction was quantified by quantitative RT-PCR.

[4] = tested on: mouse B cell subsets (CD19+, follicular, marginal zone, blood B cells); assay: IL-10 expression, IL-10 secretion and plasma cell generation in B cell subsets, CpG-based culture; conditions: 0.25 μM, 3 days
From the text: Resting mouse B cells were isolated from spleen by magnetic depletion of CD43^+ cells and total CD19^+ B cells, follicular B cells (CD19^+/CD21^low/−/CD23^high/CD1d^low) and marginal zone B cells (CD19^+/CD21^high/CD23^low/−/CD1d^hi) were purified by FACS. Total CD19^+ blood B cells were directly purified by FACS after red blood cell lysis. […] Generation of B220^low/CD138^high plasma cells was also quantified by flow cytometry. Data are presented as mean±SD. n≥3 independent experiments.

Structure (SMILES) | fold induction at 0.25 µM (human B cells) | also measured
COc1cccc(F)c1C(=O)Nc1ccc2[nH]c(-c3ccc(F)cc3)nc2c1 [Compound 1, 2-Fluoro-N-[2-(4-fluorophenyl)-1H-benzimidazol-6-yl]-6-methoxybenzamide] | 1.91 | 
CN(C)S(=O)(=O)c1cc(C(=O)Nc2ccc3[nH]c(-c4ccc(F)cc4)nc3c2)ccc1Cl [Compound 4, 4-Chloro-3-[(dimethylamino)sulfonyl]-N-[2-(4-fluorophenyl)-1H-benzimidazol-6-yl]benzamide] | 1.49 | 
O=C(Nc1ccc(-c2nc3ccc(NC(=O)c4ccc(/N=C/c5ccccc5O)cc4)c(Cl)c3[nH]2)cc1)c1ccc(/N=C/c2ccccc2O)cc1 [Compound 22, N-[4-(7-chloro-6-{[(4-{[(E)-(2-hydroxyphenyl)methylidene]amino}phenyl)carbonyl]amino}-1H-benzimidazol-2-yl)phenyl]-4-{[(E)-(2-hydroxyphenyl)methylidene]amino} benzamide] | 1.34 | 
Cc1ccc(-c2nn3c4ccc(NC(=O)c5ccccc5I)cc4nc3c3ccccc23)cc1 [Compound 30, 2-lodo-N-[5-(4-methyl-phenyl)benzimidazo[2,1-a]phthalazin-10-yl]benzamide] | 1.37 | 
Cc1ccc(-c2nn3c4ccc(NC(=O)c5ccccc5)cc4nc3c3ccccc23)cc1 [Compound 31, N-[5-(4-Methylphenyl)benzimidazo [2,1-a]phthalazin-10-yl]benzamide] | 1.72 | 
COc1ccccc1C(=O)Nc1ccc2c(c1)nc1c3ccccc3c(-c3ccc(C)cc3)nn21 [Compound 32, 2-Methoxy-N-[5-(4-methylphenyl)benzimidazo [2,1-a]phthalazin-10-yl]benzamide] | 1.42 | 
COc1ccccc1C(=O)Nc1ccc2c(c1)nc1c3ccccc3c(C)nn21 [Compound 40, 2-Methoxy-N-(5-methylbenzimidazo[2,1-a]phthalazin-10-yl)benzamide] | 1.72 | 
O=C(Nc1ccc2c(c1)nc1c3ccccc3c(-c3ccc(Cl)cc3)nn21)c1ccccc1 [Compound 43, N-[5-(4-Chloro-phenyl)benzimidazo[2,1-a]phthalazin-10-yl]benzamide] | 1.3 | 
CSc1ccccc1C(=O)Nc1ccc2[nH]c(-c3cccc(F)c3)nc2c1 [Compound 52, N-[2-(3-Fluorophenyl)-1H-benzimidazol-6-yl]-2-(methylthio)benzamide] | 1.91 | 
O=C(Nc1ccc2[nH]c(-c3ccc(F)cc3)nc2c1)c1cc(F)cc2nccnc12 [Compound 54, 7-Fluoro-N-[2-(4-fluorophenyl)-1H-benzimidazol-6-yl]-5-quinoxalinecarboxamide] | 1.71 | 
O=C(Nc1ccc2[nH]c(-c3cc(F)ccc3F)nc2c1)c1cc(F)cc2nccnc12 [Compound 56, N-[2-(2,5-Difluorophenyl)-1H-benzimidazol-6-yl]-7-fluoro-5-quinoxalinecarboxamide] | 1.76 | 
O=C(Nc1ccc2[nH]c(-c3cccc(F)c3)nc2c1)c1ccc(-n2cc[nH]c2=S)cc1 [Compound 57, N-[2-(3-fluorophenyl)-1H-benzimidazol-5-yl]-4-(2-sulfanylidene-3H-imidazol-1-yl)benzamide] | 1.33 | 
O=C1CCSc2ccc(C(=O)Nc3ccc4[nH]c(-c5cccc(F)c5)nc4c3)cc2N1 [Compound 58, N-[2-(3-fluorophenyl)-1H-benzimidazol-5-yl]-4-oxo-3,5-dihydro-2H-1,5-benzothiazepine-7-carboxamide] | 1.56 | 
O=C(Nc1ccc2[nH]c(-c3ccccc3Cl)nc2c1)c1ccccc1N1CCOCC1 [Compound 61, N-[2-(2-Chlorophenyl)-1H-benzimidazol-6-yl]-2-(4-morpholinyl)benzamide] | 2.18 | 
Nc1ccc(C(=O)Nc2ccc(-c3nc4cc(NC(=O)c5ccc(N)cc5)c(Cl)cc4[nH]3)cc2)cc1 [Compound 67, 4-Amino-N-[4-[5-[(4-aminobenzoyl)amino]-6-chloro-1H-benzimidazol-2-yl]phenyl]benzamide] | 1.84 | 
O=C(Nc1ccc2[nH]c(-c3cccnc3)nc2c1)c1ccccc1 [Compound 107, N-[2-(3-Pyridinyl)-1H-benzimidazol-6-yl]benzamide] | 1.33 | 

Structure (SMILES) | fold induction at 0.25 µM (human B cells) | also measured
Fc1cccc(-c2nc3cc(Br)ccc3[nH]2)c1 [Compound 110, 6-Bromo-2-(3-fluorophenyl)-1H-benzimidazole] | 1.43 | 
Fc1ccc(-c2nc3cc(Br)ccc3[nH]2)cc1 [Compound 111, 6-Bromo-2-(4-fluorophenyl)-1H-benzimidazole] | 1.56 | 
O=C(Nc1ccc2nc(-c3ccc(F)cc3)[nH]c2c1)c1ccccc1 [Compound 116, N-[2-(4-Fluorophenyl)-1H-benzimidazol-6-yl]benzamide] | 1.48 | 
O=C(Nc1ccc2nc(-c3cccc(F)c3)[nH]c2c1)c1ccccc1 [Compound 117, N-(2-(3-fluorophenyl)-1H-benzo[d]imidazol-6-yl)benzamide] | 1.93 | 
O=C(Nc1ccc2nc(-c3ccccc3F)[nH]c2c1)c1ccccc1 [Compound 120, N-(2-(2-fluorophenyl)-1H-benzo[d]imidazol-6-yl)benzamide] | 1.68 | 
COc1ccccc1C(=O)Nc1ccc2nc(-c3cccnc3)[nH]c2c1 [Compound 124, 2-Methoxy-N-[2-(3-pyridinyl)-1H-benzimidazol-6-yl]benzamide] | 3.5 | 
Fc1ccccc1-c1nc2ccc(Br)cc2[nH]1 [Compound 136, 6-bromo-2-(2-fluorophenyl)-1H-Benzimidazole] | 2.88 | 
COc1ccccc1C(=O)Nc1ccc2nc(-c3ccc(F)cc3)[nH]c2c1 [Compound 145, N-(2-(4-fluorophenyl)-1H-benzo[d]imidazol-6-yl)-2-methoxybenzamide] | 1.59 | 
COc1ccccc1C(=O)Nc1ccc2nc(-c3cccc(F)c3)[nH]c2c1 [Compound 153, N-(2-(3-fluorophenyl)-1H-benzo[d]imidazol-6-yl)-2-methoxybenzamide] | 1.38 | 
COc1ccccc1C(=O)Nc1ccc2nc(-c3ccccc3F)[nH]c2c1 [Compound 157, N-(2-(2-fluorophenyl)-1H-benzo[d]imidazol-6-yl)-2-methoxybenzamide] | 1.61 | 
COc1ccccc1NC(=O)c1ccc2nc(-c3ccccc3)[nH]c2c1 [Compound 366, N-(2-methoxyphenyl)-2-phenyl-1H-benzo[d]imidazole-6-carboxamide] | 1.95 | 
COc1ccccc1NC(=O)c1ccc2nc(-c3ccccc3F)[nH]c2c1 [Compound 371, 2-(2-fluorophenyl)-N-(2-methoxyphenyl)-1H-benzo[d]imidazole-6-carboxamide] | 1.84 | 
COc1ccccc1NC(=O)c1ccc2nc(-c3cccnc3)[nH]c2c1 [Compound 375, N-(2-methoxyphenyl)-2-(pyridin-3-yl)-1H-benzo[d]imidazole-6-carboxamide] | 1.6 | 
CC(=O)Nc1ccc(C(=O)Nc2ccc(-c3nc4cc(NC(=O)c5ccc(NC(C)=O)cc5)ccc4[nH]3)cc2)cc1 [Compound C3] |  | IL-10 expression in stimulated B cells [1]: markedly increases IL-10 expression; IL-10 expression in B cells (percentage of IL-10+ cells) (resting mouse B cells [2]): increase IL-10 expression in B cells across a broad range of stimulation protocols; Il10 transcription in unstimulated B cells (resting mouse B cells [3]): Increase Il10 Transcription; differentiation of B cells into plasma cells (B220low/CD138high) [4]: increase; amount of IL-10 produced by stimulated B cells ([4]; cell-free supernatants): increase; proportion of activated B cells expressing IL-10 ([4]; flow cytometry): increase
O=C(Nc1ccc2[nH]c(-c3ccccc3)nc2c1)c1ccccc1 [Compound N4, N-(2-Phenyl-1H-benzimidazol-6-yl)benzamide] | 1.61 | 
